Data from PubChem BioAssay (NCI).
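Method: 48-hour compound exposure of cells in 96-well plates, five concentrations, linear interpolation of endpoints. At the GI50, growth is halved. TGI: concentration producing complete growth inhibition.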

Columns and labels:
Experiment in all cases: growth of human tumour cells (NCI), 48 h
CCRF-CEM leukemia = tested on: CCRF-CEM leukemia
OVCAR-8 ovarian = tested on: OVCAR-8 ovarian
M14 melanoma = tested on: M14 melanoma
T-47D breast = tested on: T-47D breast
SK-MEL-2 melanoma = tested on: SK-MEL-2 melanoma
PC-3 prostate = tested on: PC-3 prostate
MDA-MB-231 breast = tested on: MDA-MB-231 breast
MCF7 breast = tested on: MCF7 breast
BT-549 breast = tested on: BT-549 breast
NCI-H460 lung = tested on: NCI-H460 lung
MOLT-4 leukemia = tested on: MOLT-4 leukemia
OVCAR-4 ovarian = tested on: OVCAR-4 ovarian
SK-MEL-5 melanoma = tested on: SK-MEL-5 melanoma
A498 renal = tested on: A498 renal
SNB-75 CNS = tested on: SNB-75 CNS
ACHN renal = tested on: ACHN renal
786-0 renal = tested on: 786-0 renal
TK-10 renal = tested on: TK-10 renal
SK-MEL-28 melanoma = tested on: SK-MEL-28 melanoma
SR leukemia = tested on: SR leukemia
RPMI-8226 leukemia = tested on: RPMI-8226 leukemia
EKVX NSCLC = tested on: EKVX NSCLC
K-562 leukemia = tested on: K-562 leukemia
OVCAR-5 ovarian = tested on: OVCAR-5 ovarian
IGROV1 ovarian = tested on: IGROV1 ovarian
DU-145 prostate = tested on: DU-145 prostate
NCI/ADR-RES ovarian = tested on: NCI/ADR-RES ovarian
A549 NSCLC = tested on: A549 NSCLC
HCC-2998 colon = tested on: HCC-2998 colon
RXF 393 renal = tested on: RXF 393 renal
NCI-H23 lung = tested on: NCI-H23 lung
OVCAR-3 ovarian = tested on: OVCAR-3 ovarian
NCI-H522 lung = tested on: NCI-H522 lung
UACC-62 melanoma = tested on: UACC-62 melanoma
HOP-92 NSCLC = tested on: HOP-92 NSCLC
HOP-62 NSCLC = tested on: HOP-62 NSCLC
SN12C renal = tested on: SN12C renal
SF-539 CNS = tested on: SF-539 CNS
LOX IMVI melanoma = tested on: LOX IMVI melanoma
U251 CNS = tested on: U251 CNS
NCI-H226 lung = tested on: NCI-H226 lung
HCT-15 colon = tested on: HCT-15 colon
HCT-116 colon = tested on: HCT-116 colon
UO-31 renal = tested on: UO-31 renal
SF-268 CNS = tested on: SF-268 CNS
HL-60(TB) leukemia = tested on: HL-60(TB) leukemia
MDA-MB-435 = tested on: MDA-MB-435
COLO 205 colon = tested on: COLO 205 colon
SW-620 colon = tested on: SW-620 colon
CAKI-1 renal = tested on: CAKI-1 renal
SF-295 CNS = tested on: SF-295 CNS
SK-OV-3 ovarian = tested on: SK-OV-3 ovarian
HS 578T breast = tested on: HS 578T breast
SNB-19 CNS = tested on: SNB-19 CNS
KM12 colon = tested on: KM12 colon
UACC-257 melanoma = tested on: UACC-257 melanoma

O=C(Oc1ccccc1)C(Br)C(Br)c1ccccc1 (configuration not stated)
GI50 (CCRF-CEM leukemia): 1.39 µM | TGI (CCRF-CEM leukemia): 6.68 µM | GI50 (OVCAR-8 ovarian): 6.11 µM | TGI (OVCAR-8 ovarian): 21.8 µM | GI50 (M14 melanoma): 2.68 µM | TGI (M14 melanoma): 7.51 µM | GI50 (T-47D breast): 2.62 µM | TGI (T-47D breast): 6.23 µM | GI50 (SK-MEL-2 melanoma): 16.1 µM | TGI (SK-MEL-2 melanoma): 33.1 µM | GI50 (PC-3 prostate): 14.9 µM | TGI (PC-3 prostate): 30.1 µM | GI50 (MDA-MB-231 breast): 14.4 µM | TGI (MDA-MB-231 breast): 29.6 µM | GI50 (MCF7 breast): 1.68 µM | TGI (MCF7 breast): 11.4 µM | GI50 (BT-549 breast): 11.7 µM | TGI (BT-549 breast): 25.6 µM | GI50 (NCI-H460 lung): 14.5 µM | TGI (NCI-H460 lung): 29.8 µM | GI50 (MOLT-4 leukemia): 3.09 µM | TGI (MOLT-4 leukemia): 11.9 µM | GI50 (OVCAR-4 ovarian): 2.25 µM | TGI (OVCAR-4 ovarian): 5.04 µM | GI50 (SK-MEL-5 melanoma): 13.1 µM | TGI (SK-MEL-5 melanoma): 25.8 µM | GI50 (A498 renal): 10.5 µM | TGI (A498 renal): 22.4 µM | GI50 (SNB-75 CNS): 15.7 µM | TGI (SNB-75 CNS): 30.1 µM | GI50 (ACHN renal): 2.06 µM | TGI (ACHN renal): 3.79 µM | GI50 (786-0 renal): 4.59 µM | TGI (786-0 renal): 16.8 µM | GI50 (TK-10 renal): 2.19 µM | TGI (TK-10 renal): 4.95 µM | GI50 (SK-MEL-28 melanoma): 2.64 µM | TGI (SK-MEL-28 melanoma): 7.11 µM | GI50 (SR leukemia): 1.93 µM | TGI (SR leukemia): 5.5 µM | GI50 (RPMI-8226 leukemia): 2.75 µM | TGI (RPMI-8226 leukemia): 7.9 µM | GI50 (EKVX NSCLC): 11.9 µM | TGI (EKVX NSCLC): 24.8 µM | GI50 (K-562 leukemia): 1.95 µM | TGI (K-562 leukemia): 9 µM | GI50 (OVCAR-5 ovarian): 7 µM | TGI (OVCAR-5 ovarian): 20.8 µM | GI50 (IGROV1 ovarian): 2 µM | TGI (IGROV1 ovarian): 3.96 µM | GI50 (DU-145 prostate): 3.18 µM | TGI (DU-145 prostate): 9.38 µM | GI50 (NCI/ADR-RES ovarian): 3.71 µM | TGI (NCI/ADR-RES ovarian): 19.9 µM | GI50 (A549 NSCLC): 18 µM | TGI (A549 NSCLC): 38.5 µM | GI50 (HCC-2998 colon): 11.8 µM | TGI (HCC-2998 colon): 24.7 µM | GI50 (RXF 393 renal): 1.74 µM | TGI (RXF 393 renal): 3.23 µM | GI50 (NCI-H23 lung): 7.2 µM | TGI (NCI-H23 lung): 24.3 µM | GI50 (OVCAR-3 ovarian): 1.72 µM | TGI (OVCAR-3 ovarian): 3.14 µM | GI50 (NCI-H522 lung): 1.69 µM | TGI (NCI-H522 lung): 3.39 µM | GI50 (UACC-62 melanoma): 5.51 µM | TGI (UACC-62 melanoma): 18.2 µM | GI50 (HOP-92 NSCLC): 2.73 µM | TGI (HOP-92 NSCLC): 7.52 µM | GI50 (HOP-62 NSCLC): 14.5 µM | TGI (HOP-62 NSCLC): 28.3 µM | GI50 (SN12C renal): 1.88 µM | TGI (SN12C renal): 4.5 µM | GI50 (SF-539 CNS): 4.76 µM | TGI (SF-539 CNS): 16.4 µM | GI50 (LOX IMVI melanoma): 1.9 µM | TGI (LOX IMVI melanoma): 4 µM | GI50 (U251 CNS): 4.13 µM | TGI (U251 CNS): 15.8 µM | GI50 (NCI-H226 lung): 5 µM | TGI (NCI-H226 lung): 18.7 µM | GI50 (HCT-15 colon): 2.32 µM | TGI (HCT-15 colon): 6.24 µM | GI50 (HCT-116 colon): 1.8 µM | TGI (HCT-116 colon): 3.54 µM | GI50 (UO-31 renal): 1.72 µM | TGI (UO-31 renal): 3.34 µM | GI50 (SF-268 CNS): 4.15 µM | TGI (SF-268 CNS): 15.2 µM | GI50 (HL-60(TB) leukemia): 3.13 µM | TGI (HL-60(TB) leukemia): 15.9 µM | GI50 (MDA-MB-435): 1.62 µM | TGI (MDA-MB-435): 3.09 µM | GI50 (COLO 205 colon): 1.98 µM | TGI (COLO 205 colon): 3.83 µM | GI50 (SW-620 colon): 1.74 µM | TGI (SW-620 colon): 3.29 µM | GI50 (CAKI-1 renal): 1.65 µM | TGI (CAKI-1 renal): 3.06 µM | GI50 (SF-295 CNS): 4.88 µM | TGI (SF-295 CNS): 18.3 µM | GI50 (SK-OV-3 ovarian): 15.9 µM | TGI (SK-OV-3 ovarian): 29.3 µM | GI50 (HS 578T breast): 2.87 µM | TGI (HS 578T breast): 8.12 µM | GI50 (SNB-19 CNS): 11.9 µM | TGI (SNB-19 CNS): 24.6 µM | GI50 (KM12 colon): 1.93 µM | TGI (KM12 colon): 3.75 µM | GI50 (UACC-257 melanoma): 2.06 µM | TGI (UACC-257 melanoma): 4.8 µM
